Assay results taken from patent US9540366B2, “Ring-fused heterocyclic compound” (Kyowa Hakko Kirin Co., Ltd., priority 2012, dated 2017).
Like-named read-outs stand apart in the source and are kept apart here.

Molecular target: T1, human Cav3.2 T-type Ca2+ channel (Homo sapiens, UniProt O95180)
T1 construct: expressed in transfected cells; host or cells: KJMGER8 cells (Namalwa cell-derived cell line)
Experiment: Inhibitory effect for intracellular calcium response via Cav3.2 T-type Ca2+ channels (FLIPR Calcium 3 Assay Kit)
Type: cell-based

[1] = human Cav3.2-expressing KJMGER8 cells (Namalwa-derived), calcium response induced by 5 mmol/L CaCl2, 3 μmol/L mibefradil as reference, read-out: IC50 for the human Cav3.2 T-type Ca2+ current

T1 sequence (O95180 whole entry): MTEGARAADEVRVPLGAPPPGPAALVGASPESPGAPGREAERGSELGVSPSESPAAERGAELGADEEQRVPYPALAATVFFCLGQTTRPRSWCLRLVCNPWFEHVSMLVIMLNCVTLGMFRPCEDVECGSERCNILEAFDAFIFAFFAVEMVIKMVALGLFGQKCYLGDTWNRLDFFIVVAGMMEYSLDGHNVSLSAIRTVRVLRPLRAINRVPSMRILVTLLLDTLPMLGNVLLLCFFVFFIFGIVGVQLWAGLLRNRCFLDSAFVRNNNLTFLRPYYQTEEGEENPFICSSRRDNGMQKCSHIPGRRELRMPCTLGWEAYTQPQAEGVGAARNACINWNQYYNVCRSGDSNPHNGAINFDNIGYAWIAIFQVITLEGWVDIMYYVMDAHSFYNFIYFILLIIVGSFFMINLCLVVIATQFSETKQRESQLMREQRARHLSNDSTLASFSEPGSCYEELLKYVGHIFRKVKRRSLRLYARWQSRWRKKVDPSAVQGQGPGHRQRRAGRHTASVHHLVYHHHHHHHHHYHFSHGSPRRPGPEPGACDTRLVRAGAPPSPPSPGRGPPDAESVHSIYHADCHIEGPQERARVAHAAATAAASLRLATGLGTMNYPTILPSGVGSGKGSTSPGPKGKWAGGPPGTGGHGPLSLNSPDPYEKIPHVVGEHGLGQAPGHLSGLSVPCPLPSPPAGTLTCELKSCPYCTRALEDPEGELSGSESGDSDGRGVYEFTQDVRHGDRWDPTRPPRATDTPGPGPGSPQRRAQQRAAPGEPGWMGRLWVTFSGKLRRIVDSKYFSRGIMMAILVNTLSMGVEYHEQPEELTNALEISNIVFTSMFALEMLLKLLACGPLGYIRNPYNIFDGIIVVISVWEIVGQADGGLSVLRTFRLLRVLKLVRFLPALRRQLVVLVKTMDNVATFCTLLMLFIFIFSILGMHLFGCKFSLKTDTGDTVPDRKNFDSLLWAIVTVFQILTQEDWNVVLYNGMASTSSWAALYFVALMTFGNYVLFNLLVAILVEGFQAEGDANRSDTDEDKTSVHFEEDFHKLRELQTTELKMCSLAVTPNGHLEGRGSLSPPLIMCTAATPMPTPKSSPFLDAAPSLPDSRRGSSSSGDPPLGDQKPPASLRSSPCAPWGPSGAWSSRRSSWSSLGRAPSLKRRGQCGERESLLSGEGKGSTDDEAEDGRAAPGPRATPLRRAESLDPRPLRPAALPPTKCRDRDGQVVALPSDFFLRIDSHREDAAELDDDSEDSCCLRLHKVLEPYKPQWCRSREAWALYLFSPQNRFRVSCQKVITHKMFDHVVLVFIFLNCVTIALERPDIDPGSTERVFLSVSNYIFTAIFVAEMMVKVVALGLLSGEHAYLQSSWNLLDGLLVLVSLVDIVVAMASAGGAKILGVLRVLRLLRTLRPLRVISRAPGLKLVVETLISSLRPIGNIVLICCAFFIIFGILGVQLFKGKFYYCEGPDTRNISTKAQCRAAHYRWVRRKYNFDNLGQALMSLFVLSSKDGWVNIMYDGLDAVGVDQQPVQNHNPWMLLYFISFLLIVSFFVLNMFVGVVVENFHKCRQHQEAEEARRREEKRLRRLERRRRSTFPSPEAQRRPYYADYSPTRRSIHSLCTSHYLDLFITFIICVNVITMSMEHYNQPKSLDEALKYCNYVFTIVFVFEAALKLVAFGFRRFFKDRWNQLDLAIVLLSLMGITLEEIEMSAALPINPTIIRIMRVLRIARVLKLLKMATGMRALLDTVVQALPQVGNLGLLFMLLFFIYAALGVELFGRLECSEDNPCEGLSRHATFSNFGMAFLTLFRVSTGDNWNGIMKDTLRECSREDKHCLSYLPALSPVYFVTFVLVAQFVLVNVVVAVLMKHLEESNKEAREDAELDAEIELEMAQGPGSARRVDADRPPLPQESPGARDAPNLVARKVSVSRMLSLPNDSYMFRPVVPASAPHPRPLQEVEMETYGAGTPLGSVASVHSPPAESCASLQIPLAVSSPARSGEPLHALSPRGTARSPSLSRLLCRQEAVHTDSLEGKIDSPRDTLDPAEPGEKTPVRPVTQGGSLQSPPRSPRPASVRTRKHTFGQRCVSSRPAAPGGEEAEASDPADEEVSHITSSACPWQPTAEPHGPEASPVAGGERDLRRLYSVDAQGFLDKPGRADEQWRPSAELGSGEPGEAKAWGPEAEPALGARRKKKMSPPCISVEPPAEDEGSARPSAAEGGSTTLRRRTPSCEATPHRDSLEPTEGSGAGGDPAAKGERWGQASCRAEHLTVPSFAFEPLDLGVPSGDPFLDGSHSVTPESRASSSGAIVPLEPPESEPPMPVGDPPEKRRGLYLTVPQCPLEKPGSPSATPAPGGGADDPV

Row | Compound | IC50 | IC50 [1]
1 | CC(C)c1nc2cc(C(=O)NCC(C)(F)F)cc(C#N)n2c1CC1CCC(F)(F)CC1 [Compound 177, 5-Cyano-3-[(4,4-difluorocyclohexyl)methyl]-N-(2,2-difluoropropyl)-2-isopropylimidazo[1,2-a]pyridine-7-carboxamide] | ≤ 100 nM | –
2 | Cc1cc(C(=O)NC2CCOCC2)cc2nc(C(F)(F)F)c(Cc3ccc(F)cc3)n12 [Compound 212, 3-(4-Fluorobenzyl)-5-methyl-N-(tetrahydro-2H-pyran-4-yl)-2-(trifluoromethyl)imidazo[1,2-a]pyridine-7-carboxamide] | ≤ 100 nM | –
3 | CC1(C)CC(NC(=O)c2cc3nc(C(F)(F)F)c(CC4CCC(F)(F)CC4)n3c(Cl)c2Cl)CCO1 (centres unmarked) [Compound 205, 5,6-Dichloro-3-[(4,4-difluorocyclohexyl)methyl]-N-(2,2-dimethyltetrahydro-2H-pyran-4-yl)-2-(trifluoromethyl)imidazo[1,2-a]pyridine-7-carboxamide] | – | ≤ 100 nM
4 | Cc1cc(C(=O)N[C@H]2C[C@@H]3CC[C@H]2O3)cc2nc(C(C)(F)F)c(Cc3ccc(Cl)cc3)n12 [Compound 215, N-[(1R,2S,4S)-7-Oxabicyclo[2.2.1]heptan-2-yl]-3-(4-chlorobenzyl)-2-(1,1-difluoroethyl)-5-methylimidazo[1,2-a]pyridine-7-carboxamide] | – | ≤ 100 nM
5 | CC(F)(F)c1nc2cc(C(=O)NC3CCOCC3)cc(C#N)n2c1CC1CCC(F)(F)CC1 [Compound 159, 5-Cyano-3-[(4,4-difluorocyclohexyl)methyl]-2-(1,1-difluoroethyl)-N-(tetrahydro-2H-pyran-4-yl)imidazo[1,2-a]pyridine-7-carboxamide] | ≤ 100 nM | –
6 | O=C(NCC1(O)CCOCC1)c1cc(Cl)n2c(CC3CCC(F)(F)CC3)c(C(F)(F)F)nc2c1 [Compound 86, 5-Chloro-3-[(4,4-difluorocyclohexyl)methyl]-N-[(4-hydroxytetrahydro-2H-pyran-4-yl)methyl]-2-(trifluoromethyl)imidazo[1,2-a]pyridine-7-carboxamide] | ≤ 100 nM | –
7 | CCOC(=O)C(C)NC(=O)c1cc(Cl)n2c(CC3CCC(F)(F)CC3)c(C(F)(F)F)nc2c1 (centres unmarked) [Compound 123, Ethyl 2-{5-chloro-3-[(4,4-difluorocyclohexyl)methyl]-2-(trifluoromethyl)imidazo[1,2-a]pyridine-7-carboxamide}propanoate] | ≤ 100 nM | –
8 | O=C(NCCc1c[nH]cn1)c1cc(Cl)n2c(CC3CCC(F)(F)CC3)c(C(F)(F)F)nc2c1 [Compound 104] | ≤ 100 nM | –
9 | Cc1ccc(Cc2c(C(F)(F)F)nc3cc(C(=O)NC4CCOCC4)cc(C)n23)cc1 [Compound 207, 5-Methyl-3-(4-methylbenzyl)-N-(tetrahydro-2H-pyran-4-yl)-2-(trifluoromethyl)imidazo[1,2-a]pyridine-7-carboxamide] | ≤ 100 nM | –
10 | CC1(C)CC(NC(=O)c2cc3nc(C(C)(F)F)c(CC4CCC(F)(F)CC4)n3cc2Cl)CCO1 (centres unmarked) [Compound 23, 6-Chloro-3-[(4,4-difluorocyclohexyl)methyl]-2-(1,1-difluoroethyl)-N-(2,2-dimethyltetrahydro-2H-pyran-4-yl)imidazo[1,2-a]pyridine-7-carboxamide] | ≤ 100 nM | –
11 | Cc1cc(C(O)c2nc3ccccc3n2C)cc2nc(C(F)(F)F)c(CC3CCC(F)(F)CC3)n12 (centres unmarked) [Compound 120, {3-[(4,4-Difluorocyclohexyl)methyl]-5-methyl-2-(trifluoromethyl)imidazo[1,2-a]pyridin-7-yl}(1-methyl-1H-benzo[d]imidazol-2-yl)methanol] | – | ≤ 100 nM
12 | O=C(NCC1(CO)CC1)c1cc(Cl)n2c(CC3CCC(F)(F)CC3)c(C(F)(F)F)nc2c1 [Compound 174, 5-Chloro-3-[(4,4-difluorocyclohexyl)methyl]-N-{[1-(hydroxymethyl)cyclopropyl]methyl}-2-(trifluoromethyl)imidazo[1,2-a]pyridine-7-carboxamide] | ≤ 100 nM | –
13 | CC(C)(CO)NC(=O)c1cc(C#N)n2c(CC3CCC(F)(F)CC3)c(C(F)(F)F)nc2c1 [Compound 162] | ≤ 100 nM | –
14 | O=C(CNC(=O)c1cc(Cl)n2c(CC3CCC(F)(F)CC3)c(C(F)(F)F)nc2c1)Nc1ccccc1 [Compound 151, 5-Chloro-3-[(4,4-difluorocyclohexyl)methyl]-N-[2-oxo-2-(phenylamino)ethyl]-2-(trifluoromethyl)imidazo[1,2-a]pyridine-7-carboxamide] | ≤ 100 nM | –
15 | N#Cc1cc(C(=O)NC2CCOC2=O)cc2nc(C(F)(F)F)c(CC3CCC(F)(F)CC3)n12 (centres unmarked) [Compound 140, 5-Cyano-3-[(4,4-difluorocyclohexyl)methyl]-N-(2-oxotetrahydrofuran-3-yl)-2-(trifluoromethyl)imidazo[1,2-a]pyridine-7-carboxamide] | ≤ 100 nM | –
16 | CC(C)(C)C(=O)NC(=O)c1cc(C#N)n2c(CC3CCC(F)(F)CC3)c(C(F)(F)F)nc2c1 [Compound 203, 5-Cyano-3-[(4,4-difluorocyclohexyl)methyl]-N-pivaloyl-2-(trifluoromethyl)imidazo[1,2-a]pyridine-7-carboxamide] | ≤ 100 nM | –

Row | Compound | IC50 | IC50 [1]
17 | Cc1cc(-c2nc3c([nH]2)CCCC3)cc2nc(C(F)(F)F)c(CC3CCC(F)(F)CC3)n12 [Compound 73, 2-{3-[(4,4-Difluorocyclohexyl)methyl]-5-methyl-2-(trifluoromethyl)imidazo[1,2-a]pyridin-7-yl}-4,5,6,7-tetrahydro-1H-benzo[d]imidazol] | ≤ 100 nM | –
18 | Cc1cc(CC(=O)NC2CCOCC2)cc2nc(C(F)(F)F)c(CC3CCC(F)(F)CC3)n12 [Compound 78, 2-{3-[(4,4-Difluorocyclohexyl)methyl]-5-methyl-2-(trifluoromethyl)imidazo[1,2-a]pyridin-7-yl}-N-(tetrahydro-2H-pyran-4-yl)acetamide] | ≤ 100 nM | –
19 | CC(F)(F)c1nc2cc(C(=O)NCC3CCOC3)c(Cl)cn2c1CC1CCC(F)(F)CC1 (centres unmarked) [Compound 24, 6-Chloro-3-[(4,4-difluorocyclohexyl)methyl]-2-(1,1-difluoroethyl)-N-[(tetrahydrofuran-3-yl)methyl]imidazo[1,2-a]pyridine-7-carboxamide] | ≤ 100 nM | –
20 | N#Cc1cc(C(=O)NC2(CO)CCOCC2)cc2nc(C(F)(F)F)c(CC3CCC(F)(F)CC3)n12 [Compound 58, 5-Cyano-3-[(4,4-difluorocyclohexyl)methyl]-N-[4-(hydroxymethyl)tetrahydro-2H-pyran-4-yl]-2-(trifluoromethyl)imidazo[1,2-a]pyridine-7-carboxamide] | ≤ 100 nM | –
21 | Cc1cc(C(C)C(=O)NC2CCOCC2)cc2nc(C(F)(F)F)c(CC3CCC(F)(F)CC3)n12 (centres unmarked) [Compound 89, 2-{3-[(4,4-Difluorocyclohexyl)methyl]-5-methyl-2-(trifluoromethyl)imidazo[1,2-a]pyridin-7-yl}-N-(tetrahydro-2H-pyran-4-yl)propanamide] | ≤ 100 nM | –
22 | CN(C)C(C)(C)CNC(=O)c1cc(C#N)n2c(CC3CCC(F)(F)CC3)c(C(F)(F)F)nc2c1 [Compound 156, 5-Cyano-3-[(4,4-difluorocyclohexyl)methyl]-N-[2-(dimethylamino)-2-methylpropyl]-2-(trifluoromethyl)imidazo[1,2-a]pyridine-7-carboxamide] | ≤ 100 nM | –
23 | O=C(CC1CCOCC1)NNC(=O)c1cc(Cl)n2c(CC3CCC(F)(F)CC3)c(C(F)(F)F)nc2c1 [Compound 143, 5-Chloro-3-[(4,4-difluorocyclohexyl)methyl]-N′-[2-(tetrahydro-2H-pyran-4-yl)acetyl]-2-(trifluoromethyl)imidazo[1,2-a]pyridine-7-carbohydrazide] | ≤ 100 nM | –
24 | CC(F)(F)c1nc2cc(C(=O)N[C@H]3C[C@@H]4CC[C@H]3O4)cc(C#N)n2c1Cc1ccc(Cl)cc1 [Compound 222, N-[(1R,2S,4S)-7-Oxabicyclo[2.2.1]heptan-2-yl]-3-(4-chlorobenzyl)-5-cyano-2-(1,1-difluoroethyl)imidazo[1,2-a]pyridine-7-carboxamide] | ≤ 100 nM | –
25 | O=C(NC1CCOCC1)c1cc(Br)n2c(CC3CCC(F)(F)CC3)c(C(F)(F)F)nc2c1 [Compound 39] | ≤ 100 nM | –
26 | CCC(F)(F)c1nc2cc(C(=O)NC3CCOCC3)cc(C)n2c1CC1CCC(F)(F)CC1 [Compound 27, 3-[(4,4-Difluorocyclohexyl)methyl]-2-(1,1-difluoropropyl)-5-methyl-N-(tetrahydro-2H-pyran-4-yl)imidazo[1,2-a]pyridine-7-carboxamide] | ≤ 100 nM | –
27 | O=C(NCC1CC1)c1cc(Cl)n2c(CC3CCC(F)(F)CC3)c(C(F)(F)F)nc2c1 [Compound 77, 5-Chloro-N-(cyclopropylmethyl)-3-[(4,4-difluorocyclohexyl)methyl]-2-(trifluoromethyl)imidazo[1,2-a]pyridine-7-carboxamide] | ≤ 100 nM | –
28 | CC(C)c1nc2cc(C(=O)NCC(F)(F)F)cc(C#N)n2c1CC1CCC(F)(F)CC1 [Compound 171, 5-Cyano-3-[(4,4-difluorocyclohexyl)methyl]-2-isopropyl-N-(2,2,2-trifluoroethyl)imidazo[1,2-a]pyridine-7-carboxamide] | ≤ 100 nM | –
29 | N#Cc1cc(C(=O)NC2CCCOC2)cc2nc(C(F)(F)F)c(CC3CCC(F)(F)CC3)n12 (centres unmarked) [Compound 64] | – | ≤ 100 nM
30 | CC(F)(F)c1nc2cc(C(=O)NCC3CC3)c(Cl)cn2c1CC1CCC(F)(F)CC1 [Compound 21, 6-Chloro-N-(cyclopropylmethyl)-3-[(4,4-difluorocyclohexyl)methyl]-2-(1,1-difluoroethyl)imidazo[1,2-a]pyridine-7-carboxamide] | ≤ 100 nM | –
31 | CSC(C)(C)CNC(=O)c1cc2nc(C(F)(F)F)c(CC3CCC(F)(F)CC3)n2c(Cl)c1Cl [Compound 213, 5,6-Dichloro-3-[(4,4-difluorocyclohexyl)methyl]-N-[2-methyl-2-(methylthio)propyl]-2-(trifluoromethyl)imidazo[1,2-a]pyridine-7-carboxamide] | ≤ 100 nM | –
32 | Cc1cc(CNC(=O)c2cc(Cl)n3c(CC4CCC(F)(F)CC4)c(C(F)(F)F)nc3c2)no1 [Compound 154, 5-Chloro-3-[(4,4-difluorocyclohexyl)methyl]-N-[(5-methylisoxazol-3-yl)methyl]-2-(trifluoromethyl)imidazo[1,2-a]pyridine-7-carboxamide] | – | ≤ 100 nM
